Results as given in the Kinase Knowledgebase extract (Sharma et al. 2016).

molecular target: MAPK14;MAPK11;MAPK12;MAPK13 (human) (UniProt Q16539); assay: Assessment of Activity of MAPK11, MAPK12, MAPK13 and MAPK14 Kinases

| IC50 | SMILES |
| --- | --- |
| < 0.025 µM | Cn1c(=O)cc(Nc2cc(C(=O)NC3CC3)ccc2Cl)c2cnn(-c3cc(F)ccc3F)c21 |
| 0.0021 µM | Cn1c(=O)cc(Nc2cc(C(=O)NC3CC3)ccc2Cl)c2cnn(-c3ccc(F)cc3)c21 |
| < 0.025 µM | Cc1ccc(C(=O)NC2CC2)cc1Oc1cc(=O)n(C)c2c1cnn2-c1cccc(F)c1 |
| < 0.025 µM | Cc1ccc(C(=O)NC2CC2)cc1Nc1cc(=O)n(C)c2c1cnn2-c1cccc(F)c1 |
| < 0.025 µM | Cc1ccc(C(=O)NC2CC2)cc1Nc1cc(=O)n(C)c2c1cnn2-c1c(F)cccc1F |
| < 0.025 µM | Cn1c(=O)cc(Nc2cc(C(=O)NC3CC3)ccc2Cl)c2cnn(-c3c(F)cccc3F)c21 |
| < 0.025 µM | Cn1c(=O)cc(Nc2cc(C(=O)NC3CC3)ccc2F)c2cnn(-c3ccc(F)cc3F)c21 |
| < 0.025 µM | Cc1ccc(C(=O)NC2CC2)cc1Oc1cc(=O)n(C)c2c1cnn2-c1cc(F)ccc1F |
| < 0.025 µM | CCn1c(=O)cc(Nc2cc(C(=O)NC3CC3)ccc2C)c2cnn(-c3ccc(F)cc3)c21 |
| < 0.025 µM | Cc1ccc(C(N)=O)cc1Nc1cc(=O)n(C)c2c1cnn2-c1cc(F)ccc1F |
| < 0.025 µM | Cc1ccc(C(N)=O)cc1Nc1cc(=O)n(C)c2c1cnn2-c1ccc(F)cc1F |
| 0.0016 µM | CONC(=O)c1ccc(C)c(Nc2cc(=O)n(C)c3c2cnn3-c2ccc(F)cc2F)c1 |
| < 0.025 µM | Cc1ccc(C(=O)NC2CC2)cc1Oc1cc(=O)n(C)c2c1cnn2-c1ccc(F)cc1F |
| 0.0017 µM | CCn1c(=O)cc(Nc2cc(C(=O)NC3CC3)ccc2Cl)c2cnn(-c3ccc(F)cc3)c21 |
| < 0.025 µM | CCn1c(=O)cc(Oc2cc(C(=O)NC3CC3)ccc2C)c2cnn(-c3ccc(F)cc3)c21 |
| < 0.025 µM | Cc1ccc(C(=O)NC2CC2)cc1Oc1cc(=O)n(C)c2c1cnn2-c1c(F)cccc1F |
| 0.0012 µM | CCn1c(=O)cc(Nc2cc(C(=O)NC3CC3)ccc2Cl)c2cnn(-c3ccc(F)cc3F)c21 |
| < 0.025 µM | Cc1ccc(C(=O)NC2CC2)cc1Nc1cc(=O)n(C)c2c1cnn2-c1cc(F)ccc1F |
